Test systems include ACHN renal; HS 578T breast; KM12 colon; MALME-3M melanoma; MCF7 breast; PC-3 prostate; SF-539 CNS; SK-MEL-2 melanoma; SR leukemia; UO-31 renal.
Holding throughout (assay): NCI anticancer screen, dose series, 48 h

Where “and” joins values, the source holds several entries; their conditions need not be identical. Equal values may be shown once.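 How tested: cells in 96-well plates exposed to compound for 48 hours at five concentrations. The concentration for 50% growth inhibition is given as GI50. TGI: total growth inhibition.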

In the case of `CCOC(=O)c1[nH]c(Br)c(-c2ccc(Br)cc2)c1Br`, the GI50 in the assay on ACHN renal was 0.929 µM; in the assay on KM12 colon it was 0.302 µM; in the assay on MALME-3M melanoma it was 0.46 µM; with MCF7 breast, 0.895 µM; in the assay with PC-3 prostate, 1.25 µM; in the assay on SF-539 CNS it was 0.298 µM. In addition, the GI50 is 0.199 µM in the assay with SR leukemia and 1.13 µM with UO-31 renal. The TGI in the assay on ACHN renal was 3.63 µM and 8.45 µM; with HS 578T breast, 13.2 µM; in the assay with KM12 colon, 16 µM; with MALME-3M melanoma, 15.8 µM; with MCF7 breast, more than 100 µM; in the assay with PC-3 prostate it was 15.5 µM. Also, the TGI with SF-539 CNS was 1.85 µM and 0.858 µM; in the assay on SK-MEL-2 melanoma, 2.53 µM; with SR leukemia, 11.1 µM; in the assay with UO-31 renal, 5.71 µM and 8.57 µM.

On to `Nc1ncnc2c1nc(Cl)n2C1OC2COP(=O)(O)OC2C1O` (stereo not drawn), for which the TGI in the assay on ACHN renal is more than 300 µM; with HS 578T breast it was more than 280 µM; in the assay with KM12 colon, more than 300 µM; in the assay on MALME-3M melanoma, more than 300 µM; in the assay on MCF7 breast it was more than 300 µM; in the assay with PC-3 prostate, more than 162 µM. The TGI in the assay on SF-539 CNS, with SK-MEL-2 melanoma, in the assay on SR leukemia and in the assay with UO-31 renal was more than 300 µM in each case.

Take `CC(C)(O)CS(=O)(=O)Nc1ccc2c(c1)CCN(C(=O)COc1cccnc1)C2`: the GI50 was more than 100 µM in the assay with ACHN renal; more than 100 µM in the assay on HS 578T breast; 0.277 µM with KM12 colon; more than 100 µM in the assay with MALME-3M melanoma; 5.1 µM in the assay with MCF7 breast; 1.06 µM in the assay on PC-3 prostate. The GI50 is less than 0.0224 µM in the assay on SF-539 CNS, more than 100 µM in the assay on SK-MEL-2 melanoma, more than 45.7 µM in the assay on SR leukemia and more than 100 µM with UO-31 renal. Moreover, the TGI in the assay with ACHN renal, in the assay with HS 578T breast, in the assay on KM12 colon, with MALME-3M melanoma, in the assay with MCF7 breast and with PC-3 prostate was more than 100 µM each time. Moreover, the TGI in the assay on SF-539 CNS, in the assay on SK-MEL-2 melanoma, in the assay with SR leukemia and in the assay with UO-31 renal was more than 100 µM throughout.

As to `C=C(CN1C(=O)[C@H]2CCCN2C(=O)c2ccccc21)c1ccc(C(=O)O)cc1`, the GI50 in the assay on ACHN renal, in the assay with HS 578T breast, in the assay with KM12 colon, in the assay with MALME-3M melanoma, in the assay on MCF7 breast and in the assay with PC-3 prostate was more than 100 µM each time. Besides, the GI50 in the assay with SF-539 CNS, in the assay on SK-MEL-2 melanoma, in the assay on SR leukemia and in the assay with UO-31 renal was more than 100 µM in each case. Further, the TGI in the assay on ACHN renal, in the assay on HS 578T breast, with KM12 colon, with MALME-3M melanoma, in the assay with MCF7 breast and with PC-3 prostate was more than 100 µM in each case. The TGI in the assay on SF-539 CNS, in the assay with SK-MEL-2 melanoma, with SR leukemia and in the assay with UO-31 renal was more than 100 µM throughout.

Regarding `O=C1/C(=C/c2ccccc2)CN(C(=O)c2cccnc2)C/C1=C\c1ccccc1`, the GI50 was 1.99 µM in the assay on ACHN renal; 5.56 µM with HS 578T breast; 0.271 µM in the assay on KM12 colon; 4.78 µM in the assay with MALME-3M melanoma; 0.322 µM in the assay with MCF7 breast; 1.44 µM with PC-3 prostate. In addition, the GI50 with SF-539 CNS was 2.14 µM; in the assay on SK-MEL-2 melanoma it was 6.72 µM; in the assay with SR leukemia, 0.311 µM; in the assay on UO-31 renal, 1.4 µM. Further, the TGI was 4.53 µM in the assay on ACHN renal; 41.5 µM in the assay on HS 578T breast; 0.765 µM with KM12 colon; 18.9 µM in the assay on MALME-3M melanoma; 1.46 µM with MCF7 breast; 4.81 µM in the assay with PC-3 prostate. For the same compound, the TGI was found to be 6.19 µM in the assay with SF-539 CNS, 20.6 µM with SK-MEL-2 melanoma, 1.35 µM in the assay with SR leukemia and 2.9 µM with UO-31 renal.

As for `Cc1cc2nc3c4cc(N)ccc4n(CCN(C)C)c3nc2cc1C`, the GI50 is 0.351 µM in the assay with ACHN renal; 2.06 µM in the assay with HS 578T breast; 0.882 µM in the assay on KM12 colon; 1.27 µM in the assay on MALME-3M melanoma; 0.494 µM in the assay with MCF7 breast; 0.935 µM with PC-3 prostate. Moreover, the GI50 in the assay on SF-539 CNS was 0.839 µM; in the assay with SK-MEL-2 melanoma, 1.34 µM; in the assay on SR leukemia it was 0.285 µM; in the assay with UO-31 renal, 0.439 µM. Besides, the TGI in the assay with ACHN renal was 9.7 µM; with HS 578T breast, 9.81 µM; in the assay on KM12 colon, 7.11 µM; with MALME-3M melanoma it was 3.08 µM; with MCF7 breast, 7.96 µM; with PC-3 prostate, 8.67 µM. In addition, the TGI amounted to 4.66 µM in the assay with SF-539 CNS, 3.89 µM with SK-MEL-2 melanoma, 7.29 µM with SR leukemia and 4.8 µM with UO-31 renal.

Consider `O=C(Nc1cccc(Cl)c1)c1ccc(NC2=C(Cl)C(=O)N(Cc3ccccc3)C2=O)cc1`, for which the GI50 was 17.6 µM with ACHN renal; 18.6 µM in the assay with HS 578T breast; more than 38.3 µM in the assay on KM12 colon; 24 µM in the assay with MALME-3M melanoma; 3.19 µM in the assay with MCF7 breast; 9.48 µM in the assay with PC-3 prostate. Besides, the GI50 was 20.4 µM in the assay with SF-539 CNS, 18.9 µM in the assay with SK-MEL-2 melanoma, 1.39 µM with SR leukemia and more than 26.3 µM in the assay on UO-31 renal. Moreover, the TGI was more than 53.4 µM in the assay with ACHN renal; 48.5 µM in the assay on HS 578T breast; more than 56.2 µM with KM12 colon; 78.5 µM in the assay with MALME-3M melanoma; 12.2 µM with MCF7 breast; 24.1 µM in the assay on PC-3 prostate. The TGI was 36.3 µM in the assay on SF-539 CNS, more than 100 µM with SK-MEL-2 melanoma, 3.82 µM with SR leukemia and more than 100 µM in the assay on UO-31 renal.

As for `C/C(=N/Nc1nc2ccccc2n1C)c1ccccn1`, the GI50 in the assay on ACHN renal was 0.0136 µM; in the assay with HS 578T breast, 0.287 µM; in the assay on KM12 colon, 0.202 µM; in the assay on MALME-3M melanoma, 0.148 µM; in the assay with MCF7 breast, 0.0276 µM; in the assay on PC-3 prostate, 0.0369 µM. Further, the GI50 was 0.225 µM in the assay with SF-539 CNS, 0.706 µM in the assay on SK-MEL-2 melanoma, 0.047 µM with SR leukemia and 0.0672 µM in the assay on UO-31 renal. Moreover, the TGI in the assay with ACHN renal amounted to 7.7 µM; in the assay with HS 578T breast, 25.6 µM; with KM12 colon, 20.7 µM; in the assay on MALME-3M melanoma, 16.7 µM; with MCF7 breast, 16.1 µM; with PC-3 prostate, 36 µM. Further, the TGI is 1.94 µM with SF-539 CNS, 22.3 µM in the assay on SK-MEL-2 melanoma, more than 89.7 µM in the assay on SR leukemia and 1.59 µM in the assay with UO-31 renal.

Consider `Ic1ccccc1-c1ccccc1`, for which the GI50 in the assay on ACHN renal was more than 100 µM; with HS 578T breast, more than 100 µM; with KM12 colon it was more than 100 µM; in the assay on MALME-3M melanoma it was 96.2 µM; in the assay with MCF7 breast it was more than 100 µM; in the assay with PC-3 prostate, more than 100 µM. The GI50 in the assay on SF-539 CNS was more than 100 µM; with SK-MEL-2 melanoma it was 76 µM; in the assay with SR leukemia it was 18.3 µM; with UO-31 renal it was 74.5 µM. In addition, the TGI with ACHN renal, in the assay on HS 578T breast, in the assay on KM12 colon, in the assay with MALME-3M melanoma, in the assay on MCF7 breast and in the assay with PC-3 prostate was more than 100 µM in each case. The TGI in the assay with SF-539 CNS, with SK-MEL-2 melanoma, in the assay on SR leukemia and with UO-31 renal was more than 100 µM throughout.

The values are drawn from PubChem BioAssay (NCI).
